{"source": "paper PMC12131194", "about": "“Rational design, synthesis, and evaluation of novel polypharmacological compounds targeting NaV1.5, KV1.5, and K2P channels for atrial fibrillation” (The Journal of Biological Chemistry, 2025)", "test_system": "human atrial cardiomyocytes from patients with sinus rhythm (SR)", "experiment": "Patch-clamp action potential recordings, atrial cardiomyocytes of sinus rhythm patients", "type": "cell-based", "description": "A total of 10 patients with sinus rhythm (SR) (N = 5) or atrial fibrillation (AF) (N = 5) undergoing open heart surgery for coronary artery bypass grafting, heart valve replacement or heart transplantation were included in the study (Table S7). A written informed consent was given by all patients. The study protocol involving human tissue samples was approved by the responsible Ethics Committee of the Medical Faculty of Heidelberg University (Germany; S-017/2013) and was conducted in accordance with the 1964 Declaration of Helsinki.\nThe right atrial human tissue samples were transported in chilled Ca^2+-free solution (100 mM NaCl, 10 mM KCl, 1.2 mM KH2PO4, 5 mM MgSO4, 50 mM taurine, 5 mM 3-(N-morpholino)propanesulfonic acid (MOPS), 30 mM 2,3-butanedione monoxime and 20 mM glucose, pH 7.0 with NaOH). After dissection into small chunks, the samples were rinsed for 5 minutes with calcium-free Tyrode's solution, which was oxygenated with 100% O2 at 37 °C. The samples were then digested with collagenase type I (288 U/ml; Worthington) and protease type XXIV (5 mg/ml; Sigma-Aldrich, Steinheim, Germany) for 10 to 15 min, followed by an increase in calcium concentration to 0.2 mM. After an additional 35 min of agitation in protease-free solution, rod-shaped single cardiomyocytes were harvested. The suspension was centrifuged, and the cells were resuspended in storage (“Kraftbrühe”, KB) medium (20 mM KCl, 10 mM KH2PO4, 25 mM glucose, 40 mM D-Mannitol, 70 mM K glutamate, 10 mM β-hydroxybutyrate, 20 mM taurine, 10 mM ethylene glycol tetraacetic acid (EGTA), and 1% albumin) until usage in patch-clamp experiments.\nPatch-clamp glass pipettes were fabricated from borosilicate glass (1B120F-4; World Precision Instruments). After back-filling with patch-clamp internal solution (134 mM K gluconate, 6 mM NaCl, 1.2 mM MgCl2, 1 mM Mg-ATP, 10 mM HEPES, pH 7.2 with KOH), tip resistances ranged from 5 to 10 MΩ. All experiments were carried out at room temperature under constant superfusion with patch-clamp extracellular solution containing 137 mM NaCl, 5.4 mM KCl, 1 mM MgCl2, 2 mM CaCl2, 10 mM HEPES, 10 mM glucose (pH 7.3 with NaOH). AP-recordings were performed in current clamp mode: The holding current was adjusted such that the cell’s resting membrane potential was approximately −70 mV at baseline. APs were induced by short (5 ms) depolarizing current pulses at a rate of 0.5 Hz. Data was not adjusted for potential differences caused by liquid junctions, and no leak subtraction was performed.\nData acquisition and analysis were performed using the pCLAMP10 software (Axon Instruments) and statistical analysis was done using Prism 8 (GraphPad Software). Data is presented as the mean ± standard error of the mean (SEM). Statistical comparisons were made using Dunnett’s post hoc test. A p value of < 0.05 was considered significant.", "key": {"[1]": {"conditions": "SR, 1, 6.25 and 12.5 μM, significant at 12.5 μM (p < 0.05)"}}, "data": [{"smiles": "CCCCN(CCCC)CC(=O)Nc1ccc(OC)cc1OC", "note": "[Compound 6f, 2-(dibutylamine)-N-(2,4-dimethoxiphenyl)acetamide]", "values": [{"measurement": "Resting membrane potential (RMP)", "setting": "SR, 6.25 μM", "value": "slight increase"}, {"measurement": "APD50 vs baseline", "setting": "SR, 1, 6.25 and 12.5 μM", "value": "only minor effects"}, {"measurement": "APD90 vs baseline", "setting": "SR, 1, 6.25 and 12.5 μM", "value": "only minor effects"}, {"measurement": "Action potential amplitude (APA) vs baseline", "setting": "[1]", "value": "concentration-dependent decrease"}, {"measurement": "Maximal upstroke velocity (dV/dtmax) vs baseline", "setting": "[1]", "value": "concentration-dependent decrease"}]}]}
